Data published in PubChem BioAssay (NCI).
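Values below derive from 48-hour exposures of cells grown in 96-well plates, with endpoints linearly interpolated between the two concentrations bracketing the appropriate inhibition level. TGI: concentration producing complete growth inhibition.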

What was measured:
Assay in all cases: NCI tumour cell line growth inhibition, 48 h
786-0 renal = system: 786-0 renal
A498 renal = system: A498 renal
A549 NSCLC = system: A549 NSCLC
ACHN renal = system: ACHN renal
CAKI-1 renal = system: CAKI-1 renal
CCRF-CEM leukemia = system: CCRF-CEM leukemia
COLO 205 colon = system: COLO 205 colon
DMS 114 small cell lung = system: DMS 114 small cell lung
DMS 273 small cell lung = system: DMS 273 small cell lung
EKVX NSCLC = system: EKVX NSCLC
HCC-2998 colon = system: HCC-2998 colon
HCT-15 colon = system: HCT-15 colon
HOP-62 NSCLC = system: HOP-62 NSCLC
HOP-92 NSCLC = system: HOP-92 NSCLC
IGROV1 ovarian = system: IGROV1 ovarian
K-562 leukemia = system: K-562 leukemia
KM20L2 colon = system: KM20L2 colon
LXFL 529 NSCLC = system: LXFL 529 NSCLC
M14 melanoma = system: M14 melanoma
M19-MEL melanoma = system: M19-MEL melanoma
MALME-3M melanoma = system: MALME-3M melanoma
MOLT-4 leukemia = system: MOLT-4 leukemia
NCI-H522 lung = system: NCI-H522 lung
OVCAR-3 ovarian = system: OVCAR-3 ovarian
OVCAR-8 ovarian = system: OVCAR-8 ovarian
RXF-631 renal = system: RXF-631 renal
SF-268 CNS = system: SF-268 CNS
SF-295 CNS = system: SF-295 CNS
SF-539 CNS = system: SF-539 CNS
SK-MEL-5 melanoma = system: SK-MEL-5 melanoma
SK-OV-3 ovarian = system: SK-OV-3 ovarian
SN12C renal = system: SN12C renal
SNB-19 CNS = system: SNB-19 CNS
SNB-78 CNS = system: SNB-78 CNS
SR leukemia = system: SR leukemia
SW-620 colon = system: SW-620 colon
U251 CNS = system: U251 CNS
UO-31 renal = system: UO-31 renal
DLD-1 colon = system: DLD-1 colon
HCT-116 colon = system: HCT-116 colon
HL-60(TB) leukemia = system: HL-60(TB) leukemia
HOP-18 NSCLC = system: HOP-18 NSCLC
HT29 colon = system: HT29 colon
KM12 colon = system: KM12 colon
LOX IMVI melanoma = system: LOX IMVI melanoma
NCI-H226 lung = system: NCI-H226 lung
NCI-H23 lung = system: NCI-H23 lung
NCI-H460 lung = system: NCI-H460 lung
OVCAR-4 ovarian = system: OVCAR-4 ovarian
OVCAR-5 ovarian = system: OVCAR-5 ovarian
RPMI-8226 leukemia = system: RPMI-8226 leukemia
RXF 393 renal = system: RXF 393 renal
SK-MEL-2 melanoma = system: SK-MEL-2 melanoma
SK-MEL-28 melanoma = system: SK-MEL-28 melanoma
SNB-75 CNS = system: SNB-75 CNS
TK-10 renal = system: TK-10 renal
UACC-257 melanoma = system: UACC-257 melanoma
UACC-62 melanoma = system: UACC-62 melanoma
XF 498 CNS = system: XF 498 CNS

Measured: TGI

CC(C)N(C(=O)C12C3C4C1C1C2C3C41C(N)=O)C(C)C (configuration not stated)
not listed: DLD-1 colon | HCT-116 colon | HL-60(TB) leukemia | HOP-18 NSCLC | HT29 colon | KM12 colon | LOX IMVI melanoma | NCI-H226 lung | NCI-H23 lung | NCI-H460 lung | OVCAR-4 ovarian | OVCAR-5 ovarian | RPMI-8226 leukemia | RXF 393 renal | SK-MEL-2 melanoma | SK-MEL-28 melanoma | SNB-75 CNS | TK-10 renal | UACC-257 melanoma | UACC-62 melanoma | XF 498 CNS
> 100 µM: all other assays above

C[C@H](CCC1SC1(C)C)C1CCC2(C)C3=C(CC[C@]12C)[C@@]1(C)CC[C@H](O)C(C)(C)C1CC3 (some centres not stated)
not listed: M19-MEL melanoma | RXF-631 renal | SF-539 CNS | SNB-78 CNS | U251 CNS
> 100 µM: all other assays above
